What was measured:
[1] = Glucose-induced membrane lipid peroxidation (LOOH) in multilamellar vesicles, CHOD-iodide assay (Example 4); assay type: biochemical
Experimental: Vitamin E (α-tocopherol) was also purchased from Sigma-Aldrich and prepared in ethanol at 1.0 mM (ε=3.06×10^4 M^−1 cm^−1 at 294 nm) just prior to experimental use. […] All test compounds were further diluted in ethanol or aqueous buffer as needed. Glucose was prepared in saline buffer (0.5 mM HEPES, 154 mM NaCl, pH 7.3) at 11.0 mM (200 mg/dL). CHOD-iodide color reagent (stock) was prepared, with slight modification, as described by from El-Saadani et al. (J. […] Samples were shell-dried under nitrogen gas and placed under vacuum for 1 h to remove residual solvent. […] Lipid suspensions were then vortexed for 3 min at ambient temperature to form MLVs. All MLV samples were subjected to time-dependent autoxidation by incubating at 37° C. in an uncovered, shaking water bath. This method allows lipid peroxidation to occur gradually without requiring the use of exogenous initiators. Small aliquots (5-100 μL) of each sample were removed, immediately following MLV preparation (0 hour) and after exposing samples to oxidative conditions for 72 or 96 hour, and combined with 1.0 mL of activated CHOD-iodide color reagent. Aliquot volume was reduced with each successive time point to ensure that spectrophotometric readings were within the optimal adsorption range. Test samples were covered and incubated in darkness at room temperature for at least 4 hr. Sample absorbances were then measured against a CHOD blank at 365 nm using a Beckman DU-640 spectrophotometer. The CHOD colorimetric assay is based on the oxidation of iodide (I^−) by lipid hydroperoxide (LOOH) to form triiodide (I3^−), the quantity of which is directly proportional to the amount of LOOH present in the lipid sample. The molar absorptivity (E) of I3^− is 2.46×10^4 M^−1 cm^−1 at 365 nm. […] The concentration of glucose selected was consistent with previous experimental studies of hyperglycemia under controlled laboratory conditions or observed in well-defined animal models of Type II diabetes following a glucose challenge. […] Values in FIG. 1 are mean±S.D. (N=6). EPA inhibited the peroxidative effects of glucose by 88% and 86% at 72 and 96 hours, respectively, which was highly significant (p<0.001) as compared to glucose treatment alone. […] Overall ANOVA-0 hour data: p=0.6655, F=0.4185; 72 hour data: p<0.0001, F=428.72; 96 hour data: p<0.0001, F=322.01.

human sdLDL [2] = assay: Copper-induced sdLDL oxidation, TBARS (Example 7); assay type: biochemical; conditions: for effect on sdLDL oxidation as compared to vehicle-treated controls: 10 μM, 1 hour
Experimental: (§1) An experiment to study the antioxidant effect of EPA in LDL and small dense […] performed. […] Fenofibrate, gemfibrozil, and niacin were purchased from Sigma-Aldrich. […] Vitamin E was also incubated with sample aliquots as a positive control.

[3] = test system: human LDL (unfractionated); assay: Copper-induced unfractionated LDL oxidation, TBARS 1 hr (Example 7); assay type: biochemical; conditions: 10 μM
Experimental: as §1

[4] = Small angle x-ray diffraction of cholesterol-enriched POPC model membranes, cholesterol domain peak intensity (Example 9); assay type: physicochemical; conditions: drug-to-phospholipid mole ratio 1:30
Experimental: The fatty acid stock solutions were stored at −20° C. until use. […] Samples were shell-dried under nitrogen gas and placed under vacuum for 3 hours to remove residual solvent at room temperature. After desiccation, each sample was resuspended in saline buffer (0.5 mM HEPES, 154 mM NaCl, pH 7.3) to yield a final phospholipid concentration of 2.5 mg/mL. Lipid suspensions were then vortexed for 3 minutes at ambient temperature to form MLVs. Membrane lipid vesicles were oriented for x-ray diffraction analysis as described by others (e.g., Herbette et al., Biophys. […] Briefly, a 100 μL aliquot of each MLV preparation (containing 250 μg MLV) was transferred to a Lucite® sedimentation cell fitted with an aluminum foil substrate designed to collect MLVs into a single membrane pellet upon centrifugation. […] After centrifugal orientation, sample supernatants were aspirated and aluminum foil substrates, each supporting a single membrane pellet, were removed from the sedimentation cells. Sample pellets were dried for 5-10 minutes at ambient conditions, mounted onto curved glass supports, and placed in hermetically-sealed, brass or glass containers (for immediate analysis or temporary storage, respectively). All x-ray diffraction experiments were conducted at 20° C., 74% relative humidity. The latter was established by exposing membrane samples to saturated solutions of L-(+)-tartaric acid (K2C4H4O6.½H2O) for at least 1 hour prior to experimental analysis. Oriented membrane samples were aligned at grazing incidence with respect to a collimated, mono-chromatic CuKα x-ray beam (Kα1 and Kα2 unresolved; λ=1.54 Å) produced by a Rigaku Rotaflex RU-200, high-brilliance microfocus generator (Rigaku-MSC, The Woodlands, Tex.) as previously described (Mason et al., Biophys. J., vol. 55(4), pages 769-778 (1989)). The samples were initially subjected to x-ray diffraction analysis at least 12 hours after formation of the membrane pellets and retested for up to several days. […] Collimation of the x-ray beam was achieved using a single Franks mirror. Diffraction data were collected on a one-dimensional, position-sensitive electron detector (Hecus X-ray Systems, Graz, Austria) at a sample-to-detector distance of 150 mm from the sample site. […] Routines written in Origin 8.6 (OriginLab Corporation, Northampton, Mass.) were used to determine total peak area (associated with all diffraction peaks in a given pattern) against which the second-order cholesterol domain peak was normalized. […] Differences between groups were analyzed using the two-tailed, Student's t-test (for comparisons between only two groups) or ANOVA followed by Dunnett or Student-Newman-Keuls multiple comparisons post-hoc analysis (for comparisons between three or more groups). […]

[5] = test system: sdLDL isolated from human subjects under hyperglycemia; assay: Glucose-induced sdLDL oxidation, TBARS/MDA (Example 10); assay type: biochemical; conditions: glucose 200 mg/dL; for glucose-induced sdLDL oxidation: 10.0 μM
Experimental: Vitamin E (α-tocopherol) purchased from Sigma-Aldrich was prepared in ethanol at 1.0 mM (c=3.06×10^4 M^−1 cm^−1 at 294 nm) prior to experimental use. Test compounds were further diluted in ethanol or aqueous buffer as needed. Phosphate Buffered Saline (PBS) purchased from Sigma-Aldrich was prepared in double distilled water at 10 mM (138 mM NaCl, 2.7 mM KCl, pH 7.4). […] Lipid oxidation was measured by the colorimetric detection of malondialdehyde (MDA), a marker of oxidative stress. Data were presented as mean±SD for (n) separate samples or experiments. Differences between groups were analyzed using the unpaired, two-tailed Student's t-test (for comparisons between only two groups) or ANOVA followed by Student-Newman-Keuls multiple comparisons post hoc analysis (for comparisons between three or more groups).

[6] = Small angle x-ray diffraction of glucose-treated model membranes, cholesterol domain peak intensity (Example 4); assay type: physicochemical; conditions: any experimental time point; 1:30 drug-to-phospholipid; glucose 200 mg/dL
Experimental: After centrifugal orientation, sample supernatants were aspirated and aluminum foil substrates, each supporting a single membrane pellet, were removed from the sedimentation cells. […] All x-ray diffraction experiments were conducted at 20° C., 74% relative humidity.
Oriented membrane samples were aligned at grazing incidence with respect to a collimated, mono-chromatic CuKα x-ray beam (Kα1 and Kα2 unresolved; λ=1.54 Å) produced by a Rigaku Rotaflex RU-200, high-brilliance microfocus generator (Rigaku-MSC, The Woodlands, Tex.) as previously described (Mason et al., Biophys. J., vol. 55(4), pages 769-778 (1989)).
Routines written in Origin 8.6 (OriginLab Corporation, Northampton, Mass.) were used to determine total peak area (associated with all diffraction peaks in a given pattern) against which the second-order cholesterol domain peak was normalized.

human sdLDL [7] = assay: Copper-induced sdLDL oxidation, TBARS after 2 hr (Example 6); assay type: biochemical
Experimental: An experiment to study the antioxidant effect of EPA in small dense […] performed. […] Vitamin E (α-tocopherol) was purchased from Sigma-Aldrich and prepared in ethanol at 1.0 mM (ε=3.06×10^4 M^-1 cm^-1 at 294 nm) just prior to experimental use. All test compounds were further diluted in ethanol or aqueous buffer as needed. Venous blood was collected from healthy volunteers into vacutainer tubes containing sodium EDTA. Plasma was separated by centrifugation at 3000 g for 25 min at 4° C. and adjusted to a density of 1.020 g/mL with KBr. Triglyceride-rich lipoproteins (TGRL) and LDL fractions were then isolated by sequential centrifugation at 70,000 rpm at 4° C. in a Beckman LE-80 ultracentrifuge using a Beckman 50.4Ti rotor (Beckman Coulter, Inc., Fullerton, Calif.). The TGRL fraction (with a relative density of <1.020) was aspirated from the top of the centrifugate and discarded, leaving an LDL-enriched […] relative density of 1.020 to 1.063). […] The sdLDL subfraction was retained for additional experimentation. Plasma and lipoprotein fractions were maintained at 4° C. and protected from excessive exposure to light. Prior to oxidation experiments, EDTA was removed from the lipoprotein fraction using PD-10 desalting columns (GE Healthcare, Piscataway N.J.). After equilibration of the column with phosphate buffered saline (PBS), 2.5 mL of the lipoprotein fraction was loaded on the column and the flow-through discarded. The lipoprotein was then eluted with 3 mL of PBS. The LDL fractions were further diluted with PBS to obtain a 100 μg/mL apoB100 concentration. […] Data are presented as mean±S.D. for (N) separate samples or treatment groups. Differences between groups were analyzed using the two-tailed, Student's t-test (for comparisons between only two groups) or ANOVA followed by Dunnett or Student-Newman-Keuls multiple comparisons post-hoc analysis (for comparisons between three or more groups).

[8] = test system: unfractionated LDL isolated from human plasma; assay: Copper-induced oxidation of unfractionated LDL, TBARS (Example 6); assay type: biochemical; conditions: 1.0 μM to 10.0 μM; data not shown
Experimental: All test compounds were further diluted in ethanol or aqueous buffer as needed. Venous blood was collected from healthy volunteers into vacutainer tubes containing sodium EDTA. […] Plasma and lipoprotein fractions were maintained at 4° C. and protected from excessive exposure to light. Prior to oxidation experiments, EDTA was removed from the lipoprotein fraction using PD-10 desalting columns (GE Healthcare, Piscataway N.J.). After equilibration of the column with phosphate buffered saline (PBS), 2.5 mL of the lipoprotein fraction was loaded on the column and the flow-through discarded. The lipoprotein was then eluted with 3 mL of PBS. The LDL fractions were further diluted with PBS to obtain a 100 μg/mL apoB100 concentration. […] Differences between groups were analyzed using the two-tailed, Student's t-test (for comparisons between only two groups) or ANOVA followed by Dunnett or Student-Newman-Keuls multiple comparisons post-hoc analysis (for comparisons between three or more groups).

[9] = test system: sdLDL from plasma of healthy volunteers; assay: Time-dependent sdLDL oxidation, MDA formation over 4 hours (Example 13); assay type: biochemical, human; conditions: entire experimental time course (4 hours)
Experimental: sdLDL was isolated from the plasma of healthy volunteers by iodixanol density gradient centrifugation and adjusted to a final apolipoprotein concentration of 2 mg/mL. Sample aliquots (100 μg apolipoprotein) were incubated with EPA, DHA, or EPA+DHA (each at 10 μM) for 30 minutes at 37° C. and then treated with 10 μM CuSO4 to initiate lipid oxidation. sdLDL oxidation was measured spectrophotometrically as a function of malondialdehyde (MDA) formation at various intervals over 4 hours. Vitamin E was also tested as a positive control. Experiments were conducted in triplicate and reported as mean±SD.

CC(C)c1c(C(=O)Nc2ccccc2O)c(-c2ccccc2)c(-c2ccc(F)cc2)n1CC[C@@H](O)C[C@@H](O)CC(=O)O [ATM, Atorvastatin ortho- (o-) hydroxy (active) metabolite]
antioxidant effects of separate treatments (LOOH formation) ([1]; each at 1.0 μM, glucose 200 mg/dL, 96 hours): potent antioxidant effects
inhibition of sdLDL oxidation vs vehicle (human sdLDL [2]; ATM 0.5 μM, alone or in combination with EPA 1.0 μM, 1 hr): 5±5%
inhibition of sdLDL oxidation vs vehicle (human sdLDL [2]; each agent at 1.0 μM, 1 hr): 18±5%

Cc1ccc(C)c(OCCCC(C)(C)C(=O)O)c1 [gemfibrozil]
effect on sdLDL oxidation as compared to vehicle-treated controls (human sdLDL [2]): no significant effect
effect on unfractionated LDL oxidation as compared to vehicle-treated controls [3]: no significant effect
effect on cholesterol domains / domain size [4]: no significant changes in cholesterol domain size
glucose-induced sdLDL oxidation [5]: did not inhibit glucose-induced sdLDL oxidation

Cc1c(C)c2c(c(C)c1O)CC[C@@](C)(CCC[C@H](C)CCC[C@H](C)CCCC(C)C)O2 [vitamin E, α-tocopherol]
effect on LOOH formation / lipid peroxidation ([1]; 72- and 96-hour time points, 1:30 drug-to-phospholipid mole ratio, glucose): no significant effect
effect on cholesterol domain formation as compared to control [6]: no significant effect
reduced TBARS levels compared to vehicle-treated controls (human sdLDL [7]; 10.0 μM, 10 μM CuSO4): 26%
sdLDL oxidation (human sdLDL [7]; concentrations below the highest (10.0 μM)): did not inhibit sdLDL oxidation
LDL oxidation [8]: did not inhibit LDL oxidation at any concentration
effect on sdLDL oxidation as compared to vehicle-treated controls (human sdLDL [2]): no significant effect
effect on unfractionated LDL oxidation as compared to vehicle-treated controls [3]: no significant effect
glucose-induced sdLDL oxidation [5]: failed to inhibit sdLDL oxidation
increased sdLDL oxidation as compared to glucose-treated controls [5]: 63%
antioxidant effect on sdLDL oxidation [9]: no significant antioxidant effect

CC(C)c1c(C(=O)Nc2ccccc2)c(-c2ccccc2)c(-c2ccc(F)cc2)n1CC[C@@H](O)C[C@@H](O)CC(=O)O [atorvastatin]
effect on sdLDL oxidation as compared to vehicle-treated controls (human sdLDL [2]): did not have any significant antioxidant activity
inhibited TBARS formation / sdLDL oxidation vs vehicle (human sdLDL [2]; each agent at 10 μM, 1 hr): 0.1±7%
effect on unfractionated LDL oxidation as compared to vehicle-treated controls [3]: did not have any significant antioxidant activity

Reference: US20200237700A1, “METHODS OF REDUCING OR PREVENTING OXIDATION OF SMALL DENSE LDL OR MEMBRANE POLYUNSATURATED FATTY ACIDS” (Amarin Pharmaceuticals Ireland Limited, priority 2015, published 2020)
